Laboratory results reported in patent US8673910B2, “Proteasome inhibitors for selectively inducing apoptosis in cancer cells” (H. Lee Moffitt Cancer Center and Research Institute, priority 2008, dated 2014).
Several values for one entry are separate records, joined by “and”; a condition that tells them apart may be missing. Identical values can stand only once. Like-named read-outs stand apart in the source and are kept apart here.

What was measured:
[1] = test system: primary multiple myeloma cells isolated from patients' bone marrow; test: Cell death of primary multiple myeloma cells (Trypan blue); assay type: cell-based, human; conditions: read-out: Cell death 24 h (IC50 values); primary MM cells, 24 h treatment; Table 5: one value per patient; mean over patients
Experimental: MM patients' bone marrow samples were collected from Liquid Tissue Bank facility. Freshly isolated bone marrow samples were fractionated by Ficoll-Paque (Pharmacia Biotech, Piscataway, N.J.) sedimentation. The mononuclear cellular layer was then resuspended in RPMI-1640 containing 10% heat-inactivated fetal bovine serum, 10 mM HEPES (pH 7.4), sodium pyruvate, L-glutamine, and 1% penicillin-streptomycin.
Adherent cells were harvested using trypsinization and pooled with suspension cells from media supernatant by pelleting at 300 g for 5 min at 4° C. The cells were then resuspended in an appropriate volume of media by pipetting gently up and down. Two 20 μl aliquots were removed and combined with an equal volume of 0.4% Trypan blue and allowed to mix for 1 minute. A 10 μl volume was loaded onto a hemacytometer and cells were scored as live or dead based on Trypan blue dye exclusion and the percentage of dead cell number to total cell number was calculated. To calculate the percentage of proliferation, the number of live cells in the treated samples was divided by the number of live cells in the untreated vehicle control.

[2] = test system: T80-Hras ovarian cancer cells; test: MTT metabolism assay; assay type: cell-based; conditions: Homo sapiens, mean ± SD of 3 to 5 experiments, read-out: IC50 for cell viability measured by MTT assay
[3] = biological target: T1, CT-L activity of the proteasome in MCF-7 human breast cancer cells (Homo sapiens, UniProt P20618+P28074); test: Proteolytic activity in cell lysates of treated intact MCF-7 cells; assay type: cell-based; conditions: intact cells treated 16 h, CT-L measured in cell lysates; two determinations where two values
T1 construct: endogenous in cells; host or cells: MCF-7
Experimental: Human MCF-7 breast cancer cells were cultured in DMEM medium containing 10% fetal calf serum (FCS) and 100 units/ml of penicillin and 100 μg/ml of streptomycin. Cells were maintained at 37° C. in a humidified incubator in an atmosphere of 5% CO2. Cells were treated with different concentrations of PI-083, YG1-080, YG1-075, HL2-090-2, HL2-090-4, HL2-090-6, and HL2-090-9 or vehicle control (DMSO) for 16 h.
Intact cells were treated with compounds and lysates prepared as described above. Cell lysates (5 μg) was incubated with 20 μM Suc-Leu-Leu-Val-Tyr-AMC for the CT-L activity for 1 h at 37° C. in 100 μl of assay buffer (50 mM Tris-HCl, pH 7.6). After incubation, production of hydrolyzed 7-amido-4-methyl-coumarin (AMC) groups was measured using a WALLAC Victor^2 1420 Multilabel Counter with an excitation filter of 355 nm and an emission filter of 460 nm (Perkin Elmer Life Sciences, Turku, Finland).

[4] = test system: MCF-7 breast cancer xenografts; test: Antitumor study of human tumor xenografts in nude mice (MCF-7); assay type: in vivo; conditions: 1 mpk i.p. 2× weekly; for average tumor size of MCF-7 derived xenografts: start at about 200 mm^3
Experimental: (§3) Nude mice (Charles River Laboratories, Wilmington, Mass.) were maintained and treated in accordance with the Institutional Animal Care and Use Committee procedures and guidelines. Seven days before inoculation with MCF-7 cells, the animals were fully anesthetized for subcutaneous implantation of estradiol pellets (0.25 mg per pellet, 60-day release; Innovative Research of America, Sarasota, Fla.) on the dorsal surface of mice. Exponentially growing MCF-7 and A549 cells were harvested via trypsinization, pelleted at 300 g for 5 minutes, resuspended in sterile PBS (Invitrogen) at 10^7 cells per 100 μl, and injected into each flank of mice. The tumor xenografts were monitored with an electronic caliper every other day for 16 days. Tumor volume was calculated using the formula V=W^2L, where width is the largest diameter and length is the smallest diameter. When the tumors reached ˜200 mm^3, the animals were randomized and treatment schedules were implemented. […] 2 hours after the last injections animals were sacrificed via CO2 inhalation, and then tumors and livers were harvested and snap frozen in liquid N2.

[5] = test system: A549 lung cancer xenografts; test: Antitumor study of human tumor xenografts in nude mice (A549); assay type: in vivo; conditions: 1 mpk i.p. 2× weekly; for average tumor size of A549-derived xenografts: start at about 200 mm^3
Experimental: as §3

[6] = test system: T80 ovarian epithelial cells; test: MTT metabolism assay; assay type: cell-based; conditions: Homo sapiens, Epithelial cell, mean ± SD of 3 to 5 experiments, read-out: IC50 for cell viability measured by MTT assay
Experimental: (§1) Cells were plated in 96-well plates in 100 μl medium and allowed to attach overnight. […] Media was aspirated after 24 or 72 hours and replaced with 100 μl complete media containing 1 mg/ml MTT and incubated for three hours at 37° C. in 5% CO2 humidified incubator. Media was then aspirated and DMSO was added. Cells were incubated for 10 min at room temperature while shaking, and the absorbance was determined at 540 nm using a μQuant spectrophotometric plate reader (Bio-TEK, Winooski, Vt.).

[7] = test system: U266 multiple myeloma cells; test: MTT metabolism assay; assay type: cell-based; conditions: Homo sapiens, U-266, mean ± SD of 3 to 5 experiments, read-out: IC50 for cell viability measured by MTT assay
Experimental: as §1

[8] = test system: HPDE6-C7-Kras (C7-Kras) pancreatic cancer cells; test: MTT metabolism assay; assay type: cell-based; conditions: Homo sapiens, Pancreatic cancer cell, mean ± SD of 3 to 5 experiments, read-out: IC50 for cell viability measured by MTT assay
Experimental: as §1

[9] = test system: MCF-10A breast epithelial cells; test: MTT metabolism assay; assay type: cell-based; conditions: Homo sapiens, mean ± SD of 3 to 5 experiments, read-out: IC50 for cell viability measured by MTT assay
Experimental: as §1

A549 lung cancer cells = test: MTT metabolism assay; assay type: cell-based; conditions: Homo sapiens, mean ± SD of 3 to 5 experiments, read-out: IC50 for cell viability measured by MTT assay
Experimental: as §1

[10] = test system: p27^Kip1 levels in A549 lung cancer cells; test: Western blot of p27Kip1 in cultured A549 cells; assay type: cell-based, human; conditions: 48 h treatment
Experimental: Cell lysates (50 μg) were separated by SDS-PAGE and transferred to a nitrocellulose membrane, probed with p27^Kip1 and β-actin antibodies, and signals were visualized by enhanced chemoluminescence (ECL, Amersham, Piscataway, N.J.) according to the manufacturer's protocol.

[11] = biological target: T2, PGPH activity of purified 20S rabbit proteasome (Oryctolagus cuniculus, UniProt A0A5F9DQW2); test: Proteolytic activity of purified 20S proteasome, fluorogenic substrate Z-Leu-Leu-Glu-AMC; assay type: biochemical; conditions: Table 4: means of 3 experiments ± standard error, read-out: IC50 for PGPH-like activity in vitro
T2 construct: purchased Boston Biochem
T2 sequence (A0A5F9DQW2 1-212): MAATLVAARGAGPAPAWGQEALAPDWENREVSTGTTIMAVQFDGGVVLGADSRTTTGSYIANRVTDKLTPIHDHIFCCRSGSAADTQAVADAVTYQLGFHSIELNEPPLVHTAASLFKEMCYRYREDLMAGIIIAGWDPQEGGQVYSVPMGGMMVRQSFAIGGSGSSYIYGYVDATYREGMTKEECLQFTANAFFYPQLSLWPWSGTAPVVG
Experimental: (§2) In the high-throughput screen, the inventors used fluorogenic peptides as substrates to assay 3,229 compounds of the NCI Diversity, Natural Product, Challenge and Mechanistic Sets for inhibitory activity against the proteolytic activities of the purified 20S proteasome, resulting in the identification of PI-083. […] After incubation, production of hydrolyzed 7-amido-4-methyl-coumarin (AMC) groups was measured using a WALLAC Victor^2 1420 Multilabel Counter with an excitation filter of 355 nm and an emission filter of 460 nm (Perkin Elmer Life Sciences, Turku, Finland).

[12] = biological target: T3, trypsin-like (T-L) activity of purified 20S rabbit proteasome (Oryctolagus cuniculus, UniProt G1SWK8); test: Proteolytic activity of purified 20S proteasome, fluorogenic substrate Bz-Val-Gly-Arg-AMC; assay type: biochemical; conditions: Table 4: means of 3 experiments ± standard error, read-out: IC50 for T-L activity in vitro
T3 construct: purchased Boston Biochem
T3 sequence (G1SWK8 1-271): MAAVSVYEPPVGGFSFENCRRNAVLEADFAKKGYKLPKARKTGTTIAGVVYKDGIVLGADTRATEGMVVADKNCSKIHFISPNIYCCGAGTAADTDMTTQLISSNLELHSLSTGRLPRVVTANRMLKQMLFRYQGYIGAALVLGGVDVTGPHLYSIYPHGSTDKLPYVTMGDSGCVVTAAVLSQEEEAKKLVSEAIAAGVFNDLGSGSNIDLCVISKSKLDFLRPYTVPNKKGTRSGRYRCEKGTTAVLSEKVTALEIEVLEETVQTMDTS
Experimental: as §2

| Structure (SMILES) | IC50 ([2]; 24 h) [µM] | average tumor size of MCF-7 derived xenografts [4] | average tumor size of A549-derived xenografts [5] | IC50 ([6]; T80, 24 h) [µM] | IC50 ([6]; T80, 72 h) [µM] | IC50 ([7]; U266, 24 h) [µM] | IC50 ([8]; 24 h) [µM] | IC50 ([8]; 72 h) [µM] | IC50 ([9]; 24 h) [µM] | IC50 ([9]; 72 h) [µM] | IC50 (A549 lung cancer cells; A549, 24 h) [µM] | IC50 (A549 lung cancer cells; A549, 72 h) [µM] | other results |
| --- | --- | --- | --- | --- | --- | --- | --- | --- | --- | --- | --- | --- | --- |
| O=C1C(Cl)=C(Nc2ccc(S(=O)(=O)Nc3ccccn3)cc2)C(=O)c2ccccc21 [PI-083, 4-(3-chloro-1,4-dioxo-1,4-dihydronaphthalen-2-ylamino)-N-(pyridin-2-yl)benzenesulfonamide] | 1.5 ± 0.57 | about 396±137 mm^3 | about 511±134 mm^3 | 2.7 ± 0.53 | 1.7 ± 0.39 | 23 ± 1.7 | 2.4 ± 0.23 | 1.9 ± 0.2 | 17 ± 0.86 | 4.2 ± 2.1 | 41 ± 17 | 11 ± 6.7 | IC50 [1]: 6.2 µM and 2.7 µM and 1.1 µM and 2.4 µM and 1.7 µM and 4.1 µM and 9 µM and 7.3 µM and 3.2 µM; IC50 ([2]; 72 h): 2.1 ± 0.4 µM; IC50 [3]: 6.2 µM and 5.6 µM; tumor growth inhibition, MCF-7 xenografts [4]: 84%; tumor growth inhibition, A549 xenografts [5]: 54%; IC50 ([7]; U266, 72 h): 7 ± 1.5 µM |
| CC(C)C[C@H](NC(=O)[C@H](Cc1ccccc1)NC(=O)c1cnccn1)B(O)O [Bortezomib, reference compound] | > 30 | 1,448±145 mm^3 | 864±207 mm^3 | > 30 | 0.014 ± 0.001 | > 30 | > 30 | 0.028 ± 0.006 | > 30 | 0.15 ± 0.074 | > 30 | 0.41 ± 0.07 | p27^Kip1 levels in cultured A549 lung cancer cells [10]: marked increase; IC50 [11]: 0.475 µM; antitumor effect in MCF-7 xenografts, in words [4]: appeared to be ineffective in the nude mouse model; IC50 [12]: 7.02 µM |
